Experimental data as given in ChEMBL document CHEMBL2401711, “Recent progress and future options in the development of GLP-1 receptor agonists for the treatment of diabesity” (Bioorg Med Chem Lett, 2013).
Each block holds one molecule with its values, some of them ahead of it.

Experiments:
[1] = Terminal half life in type 2 diabetes patient at 10 ug, sc bid; type: ADME, organism-based; settings: human, in vivo, read-out: beta t1/2 (converted)
Albumin = Albumin (Homo sapiens, UniProt P02768); test: Binding affinity to serum albumin (unknown origin) relative to control; type: ADME; settings: isolated protein
[2] = (§1) Half life in human; type: ADME, organism-based; settings: in vivo
Homo sapiens [3] = organism: Homo sapiens; test: as §1; type: ADME, organism-based; settings: in vivo
Homo sapiens [4] = test: Antidiabetic activity in type 2 diabetes patient assessed as reduction of HbA1c at => 0.2 mg administered once per week measured after 12 weeks (reference value: 0.5%); type: functional, organism-based; set-up: scale not given: the % may be the effect or the level left
Homo sapiens [5] = test: Antidiabetic activity in type 2 diabetes patient assessed as reduction of body weight at => 0.8 mg administered once per week measured after 12 weeks (reference value: 1.2 kg); type: functional, organism-based
Homo sapiens [6] = test: Toxicity in type 2 diabetes patient assessed as gastro-intestinal side effects at 10 to 20 mg administered once per week up to 104 weeks; type: organism-based; settings: in vivo, 17472 h

Chain of Albumin (P02768 whole entry): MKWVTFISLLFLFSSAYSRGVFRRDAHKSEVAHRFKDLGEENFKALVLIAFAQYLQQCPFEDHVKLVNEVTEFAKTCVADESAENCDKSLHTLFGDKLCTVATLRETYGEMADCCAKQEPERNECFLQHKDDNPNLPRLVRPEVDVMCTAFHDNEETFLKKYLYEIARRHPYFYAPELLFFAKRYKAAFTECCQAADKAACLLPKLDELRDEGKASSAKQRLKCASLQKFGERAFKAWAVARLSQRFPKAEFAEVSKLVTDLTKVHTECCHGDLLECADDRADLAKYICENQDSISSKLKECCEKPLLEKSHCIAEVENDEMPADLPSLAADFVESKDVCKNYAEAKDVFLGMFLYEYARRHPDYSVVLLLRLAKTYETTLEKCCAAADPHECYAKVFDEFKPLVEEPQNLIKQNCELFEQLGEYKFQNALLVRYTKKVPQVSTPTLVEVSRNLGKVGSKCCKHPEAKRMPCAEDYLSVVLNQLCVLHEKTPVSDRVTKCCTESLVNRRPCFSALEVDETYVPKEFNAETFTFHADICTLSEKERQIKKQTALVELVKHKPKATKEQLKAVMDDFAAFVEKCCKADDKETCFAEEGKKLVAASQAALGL

half-life [1]: 2.4 h
Molecule: CC[C@H](C)[C@H](NC(=O)[C@H](C)NC(=O)CNC(=O)[C@H](Cc1ccccc1)NC(=O)[C@H](CC(N)=O)NC(=O)[C@H](CC(N)=O)NC(=O)[C@H](CO)NC(=O)[C@H](CO)NC(=O)[C@H](Cc1c[nH]cn1)NC(=O)[C@@H](NC(=O)[C@H](CC(C)C)NC(=O)[C@H](Cc1ccccc1)NC(=O)[C@H](CC(N)=O)NC(=O)[C@H](C)NC(=O)[C@H](CC(C)C)NC(=O)[C@H](CCCNC(=N)N)NC(=O)[C@H](CCC(N)=O)NC(=O)[C@@H](NC(=O)[C@H](C)NC(=O)[C@@H]1CSSC[C@H](NC(=O)[C@@H](N)CCCCN)C(=O)N[C@@H](CC(N)=O)C(=O)N[C@@H]([C@@H](C)O)C(=O)N[C@@H](C)C(=O)N[C@@H]([C@@H](C)O)C(=O)N1)[C@@H](C)O)C(C)C)C(=O)N[C@@H](CC(C)C)C(=O)N[C@@H](CO)C(=O)N[C@@H](CO)C(=O)N[C@H](C(=O)N[C@@H](CC(N)=O)C(=O)N[C@H](C(=O)NCC(=O)N[C@@H](CO)C(=O)N[C@@H](CC(N)=O)C(=O)N[C@H](C(=O)N[C@@H](Cc1ccc(O)cc1)C(=O)O)[C@@H](C)O)C(C)C)[C@@H](C)O [AMYLIN]

Activity (Albumin): 99%
half-life [2]: 264 h
Molecule: CCCCCCCCCCCCCCCC(=O)N[C@@H](CCC(=O)NCCCC[C@H](NC(=O)[C@H](C)NC(=O)[C@H](C)NC(=O)[C@H](CCC(N)=O)NC(=O)CNC(=O)[C@H](CCC(=O)O)NC(=O)[C@H](CC(C)C)NC(=O)[C@H](Cc1ccc(O)cc1)NC(=O)[C@H](CO)NC(=O)[C@H](CO)NC(=O)[C@@H](NC(=O)[C@H](CC(=O)O)NC(=O)[C@H](CO)NC(=O)[C@@H](NC(=O)[C@H](Cc1ccccc1)NC(=O)[C@@H](NC(=O)CNC(=O)[C@H](CCC(=O)O)NC(=O)[C@H](C)NC(=O)[C@@H](N)Cc1cnc[nH]1)[C@@H](C)O)[C@@H](C)O)C(C)C)C(=O)N[C@@H](CCC(=O)O)C(=O)N[C@@H](Cc1ccccc1)C(=O)N[C@H](C(=O)N[C@@H](C)C(=O)N[C@@H](Cc1c[nH]c2ccccc12)C(=O)N[C@@H](CC(C)C)C(=O)N[C@H](C(=O)N[C@@H](CCCNC(=N)N)C(=O)NCC(=O)N[C@@H](CCCNC(=N)N)C(=O)NCC(=O)O)C(C)C)[C@@H](C)CC)C(=O)O [LIRAGLUTIDE]

t1/2 (Homo sapiens [3]): 160 h
Molecule: SEMAGLUTIDE [listing 1 of 2 here]

Molecule: SEMAGLUTIDE [listing 2 of 2 here]
Activity (Homo sapiens [4]): < 1.7%
Activity (Homo sapiens [5]): < 4.8 kg

Molecule: TASPOGLUTIDE
Activity (Homo sapiens [6]): 34%
